According to publication doi:10.1101/2023.02.25.530034v1 (biorxiv, 2023):
pIC50: −log10 of the molar value.

Assays:
rhBCAT1 = target: T1, rhBCAT1 (Homo sapiens, UniProt P54687); experiment: aminotransferase activity assay with leucine dehydrogenase; format: biochemical
T1 sequence (P54687 1-386): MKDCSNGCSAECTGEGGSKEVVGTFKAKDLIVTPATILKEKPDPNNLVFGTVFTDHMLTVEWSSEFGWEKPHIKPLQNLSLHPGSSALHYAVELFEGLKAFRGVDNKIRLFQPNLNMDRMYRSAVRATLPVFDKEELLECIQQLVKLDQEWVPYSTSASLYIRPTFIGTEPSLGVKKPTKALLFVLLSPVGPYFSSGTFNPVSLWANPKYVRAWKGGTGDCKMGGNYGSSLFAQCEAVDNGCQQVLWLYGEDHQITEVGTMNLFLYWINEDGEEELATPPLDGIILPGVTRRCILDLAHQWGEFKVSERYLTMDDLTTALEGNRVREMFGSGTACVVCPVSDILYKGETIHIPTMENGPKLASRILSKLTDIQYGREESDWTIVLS

rhBCAT2 = target: T2, rhBCAT2 (Homo sapiens, UniProt O15382); experiment: as above; format: biochemical
T2 sequence (O15382 28-392): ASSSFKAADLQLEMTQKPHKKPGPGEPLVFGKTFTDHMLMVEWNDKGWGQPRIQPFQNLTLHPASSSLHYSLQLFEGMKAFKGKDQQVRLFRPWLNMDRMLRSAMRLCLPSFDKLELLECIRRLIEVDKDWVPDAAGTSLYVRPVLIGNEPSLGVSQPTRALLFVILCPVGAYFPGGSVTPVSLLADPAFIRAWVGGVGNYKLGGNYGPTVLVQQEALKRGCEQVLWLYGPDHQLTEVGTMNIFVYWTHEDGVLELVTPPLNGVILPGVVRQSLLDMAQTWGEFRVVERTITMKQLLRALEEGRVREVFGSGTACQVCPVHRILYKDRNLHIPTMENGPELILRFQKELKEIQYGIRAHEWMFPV

pIC50 (rhBCAT1): ~9.30 | pIC50 (rhBCAT2): < 6.00
Compound: O=C(O)CCC(C(=O)c1ccc(Br)cc1)c1ccccc1 (centres unmarked) [ERG245]
